According to paper PMC10905675, “INX-315, a Selective CDK2 Inhibitor, Induces Cell Cycle Arrest and Senescence in Solid Tumors” (Cancer Discovery, 2023):

What was measured:
Assay in all cases: SelectScreen Adapta
Assay type in all cases: biochemical
Details in all cases: INX-0315 at 100nM
PI4K2A (PI4K2 alpha) = biological target: T1, PI4K2A (PI4K2 alpha) (Homo sapiens, UniProt Q9BTU6)
T1 construct: purchased Thermo Fisher Scientific SelectScreen (plus Nanosyn / Reaction Biology for CDK/cyclin lines)
Description: (§1) INX-315 was first evaluated in the SelectScreen Biochemical Kinase Profiling at Thermo Fisher Scientific (Madison, WI). The primary screen consisted of INX-315 dosed at a single concentration of 100 nmol/L in 1% DMSO across each platform within the SelectScreen array of assays, LanthaScreen Eu Kinase Binding Assay; AdaptaScreen; and Z'LyteScreen using preestablished conditions at Thermo Fisher Scientific as shown in Supplementary Table S2. […] The follow-up screen consisted of 10-point dose–response curves for INX-315 from 1 µmol/L to 0.0495 nmol/L.

PI4K2B (PI4K2 beta) = biological target: T2, PI4K2B (PI4K2 beta) (Homo sapiens, UniProt Q8TCG2)
T2 construct: purchased Thermo Fisher Scientific SelectScreen (plus Nanosyn / Reaction Biology for CDK/cyclin lines)
Description: as §1

[1] = biological target: T3, PIK3CB/PIK3R2 (p110 beta/p85 beta) (Homo sapiens, UniProt P42338)
T3 construct: purchased Thermo Fisher Scientific SelectScreen (plus Nanosyn / Reaction Biology for CDK/cyclin lines)
Description: as §1

DAPK1 = biological target: T4, DAPK1 (Homo sapiens, UniProt P53355)
T4 construct: purchased Thermo Fisher Scientific SelectScreen (plus Nanosyn / Reaction Biology for CDK/cyclin lines)
Description: as §1

CAMK1 (CaMK1) = biological target: T5, CAMK1 (CaMK1) (Homo sapiens, UniProt Q14012)
T5 construct: purchased Thermo Fisher Scientific SelectScreen (plus Nanosyn / Reaction Biology for CDK/cyclin lines)
Description: as §1

[2] = biological target: T6, PIK3CA E542K/PIK3R1 (p110 alpha E542K/p85 alpha) (Homo sapiens, UniProt P42336, E542K)
T6 construct: purchased Thermo Fisher Scientific SelectScreen (plus Nanosyn / Reaction Biology for CDK/cyclin lines)
Description: as §1

PIP5K1A = biological target: T7, PIP5K1A (Homo sapiens, UniProt Q99755)
T7 construct: purchased Thermo Fisher Scientific SelectScreen (plus Nanosyn / Reaction Biology for CDK/cyclin lines)
Description: as §1

CDK4/cyclin D3 = biological target: T8, CDK4/cyclin D3 (Homo sapiens, UniProt P11802)
T8 construct: purchased Thermo Fisher Scientific SelectScreen (plus Nanosyn / Reaction Biology for CDK/cyclin lines)
Description: as §1

PIK3C3 (hVPS34) = biological target: T9, PIK3C3 (hVPS34) (Homo sapiens, UniProt Q8NEB9)
T9 construct: purchased Thermo Fisher Scientific SelectScreen (plus Nanosyn / Reaction Biology for CDK/cyclin lines)
Description: as §1

GSG2 (Haspin) = biological target: T10, GSG2 (Haspin) (Homo sapiens, UniProt Q8TF76)
T10 construct: purchased Thermo Fisher Scientific SelectScreen (plus Nanosyn / Reaction Biology for CDK/cyclin lines)
Description: as §1

LRRK2 G2019S = biological target: T11, LRRK2 G2019S (Homo sapiens, UniProt Q5S007, G2019S)
T11 construct: purchased Thermo Fisher Scientific SelectScreen (plus Nanosyn / Reaction Biology for CDK/cyclin lines)
T11 sequence (Q5S007 whole entry G2019S): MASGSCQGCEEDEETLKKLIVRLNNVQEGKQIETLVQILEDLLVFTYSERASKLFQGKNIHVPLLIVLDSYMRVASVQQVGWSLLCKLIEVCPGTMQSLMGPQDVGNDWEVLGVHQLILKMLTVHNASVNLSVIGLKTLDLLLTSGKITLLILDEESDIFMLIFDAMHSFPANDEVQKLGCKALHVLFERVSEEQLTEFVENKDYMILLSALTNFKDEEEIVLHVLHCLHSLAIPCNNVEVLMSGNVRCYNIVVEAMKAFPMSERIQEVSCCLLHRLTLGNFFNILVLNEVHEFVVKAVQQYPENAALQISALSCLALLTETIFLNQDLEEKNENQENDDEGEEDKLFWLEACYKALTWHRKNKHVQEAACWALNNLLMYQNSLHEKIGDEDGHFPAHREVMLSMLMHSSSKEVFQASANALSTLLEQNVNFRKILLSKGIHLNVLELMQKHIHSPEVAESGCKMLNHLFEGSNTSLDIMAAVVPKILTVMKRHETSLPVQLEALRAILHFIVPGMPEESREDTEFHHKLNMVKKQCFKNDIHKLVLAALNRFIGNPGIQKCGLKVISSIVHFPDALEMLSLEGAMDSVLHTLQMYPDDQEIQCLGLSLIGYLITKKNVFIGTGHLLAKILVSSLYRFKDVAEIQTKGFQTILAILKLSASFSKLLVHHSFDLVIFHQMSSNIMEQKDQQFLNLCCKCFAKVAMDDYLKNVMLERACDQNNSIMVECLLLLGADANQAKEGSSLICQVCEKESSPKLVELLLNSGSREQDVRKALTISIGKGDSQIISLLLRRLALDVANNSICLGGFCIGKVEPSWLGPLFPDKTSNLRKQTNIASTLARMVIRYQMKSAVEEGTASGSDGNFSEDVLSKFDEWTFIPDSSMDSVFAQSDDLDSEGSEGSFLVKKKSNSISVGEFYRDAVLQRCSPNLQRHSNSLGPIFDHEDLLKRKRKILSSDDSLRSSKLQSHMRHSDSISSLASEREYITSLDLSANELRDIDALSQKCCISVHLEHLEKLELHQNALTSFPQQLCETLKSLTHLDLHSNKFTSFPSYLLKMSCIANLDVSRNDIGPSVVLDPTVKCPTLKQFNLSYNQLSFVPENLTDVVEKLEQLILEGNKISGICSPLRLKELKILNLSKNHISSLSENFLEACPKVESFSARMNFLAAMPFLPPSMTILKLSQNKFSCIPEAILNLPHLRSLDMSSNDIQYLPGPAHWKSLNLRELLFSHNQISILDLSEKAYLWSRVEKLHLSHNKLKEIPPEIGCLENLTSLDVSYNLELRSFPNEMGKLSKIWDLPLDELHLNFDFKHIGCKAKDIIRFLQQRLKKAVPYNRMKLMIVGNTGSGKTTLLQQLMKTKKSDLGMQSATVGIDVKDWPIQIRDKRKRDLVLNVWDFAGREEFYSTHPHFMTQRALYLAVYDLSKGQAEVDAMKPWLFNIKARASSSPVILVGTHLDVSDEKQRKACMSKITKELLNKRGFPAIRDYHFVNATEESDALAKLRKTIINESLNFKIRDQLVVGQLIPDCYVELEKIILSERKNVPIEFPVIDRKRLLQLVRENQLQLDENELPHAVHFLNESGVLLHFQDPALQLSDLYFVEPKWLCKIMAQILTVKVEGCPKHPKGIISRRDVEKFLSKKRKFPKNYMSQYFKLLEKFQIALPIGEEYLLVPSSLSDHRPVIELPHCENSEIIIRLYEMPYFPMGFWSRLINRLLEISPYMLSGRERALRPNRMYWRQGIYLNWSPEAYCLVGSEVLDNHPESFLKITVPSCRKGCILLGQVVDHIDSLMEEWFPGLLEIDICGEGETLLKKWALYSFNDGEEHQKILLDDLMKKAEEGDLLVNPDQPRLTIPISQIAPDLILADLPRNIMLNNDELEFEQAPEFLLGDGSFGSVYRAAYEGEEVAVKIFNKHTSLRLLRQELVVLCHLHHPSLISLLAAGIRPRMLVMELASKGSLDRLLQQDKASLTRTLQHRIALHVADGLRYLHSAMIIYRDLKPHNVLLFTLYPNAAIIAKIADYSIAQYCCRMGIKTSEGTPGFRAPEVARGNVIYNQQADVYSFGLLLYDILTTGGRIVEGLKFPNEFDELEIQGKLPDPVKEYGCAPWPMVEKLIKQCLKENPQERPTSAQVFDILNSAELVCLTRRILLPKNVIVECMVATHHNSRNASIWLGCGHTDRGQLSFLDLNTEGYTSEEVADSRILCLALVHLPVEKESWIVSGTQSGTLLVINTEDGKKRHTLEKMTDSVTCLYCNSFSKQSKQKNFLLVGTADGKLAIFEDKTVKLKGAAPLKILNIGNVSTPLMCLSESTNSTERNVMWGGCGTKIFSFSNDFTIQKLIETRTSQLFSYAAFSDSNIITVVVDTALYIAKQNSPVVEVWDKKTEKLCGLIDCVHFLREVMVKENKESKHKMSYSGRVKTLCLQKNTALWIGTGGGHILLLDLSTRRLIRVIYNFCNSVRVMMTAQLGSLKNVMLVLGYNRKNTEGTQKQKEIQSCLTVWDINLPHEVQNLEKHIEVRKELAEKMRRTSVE
Description: as §1

CHUK (IKK alpha) = biological target: T12, CHUK (IKK alpha) (Homo sapiens, UniProt O15111)
T12 construct: purchased Thermo Fisher Scientific SelectScreen (plus Nanosyn / Reaction Biology for CDK/cyclin lines)
Description: as §1

CDK7/cyclin H/MNAT1 = biological target: T13, CDK7/cyclin H/MNAT1 (Homo sapiens, UniProt P50613)
T13 construct: purchased Thermo Fisher Scientific SelectScreen (plus Nanosyn / Reaction Biology for CDK/cyclin lines)
Description: as §1

IRAK1 = biological target: T14, IRAK1 (Homo sapiens, UniProt P51617)
T14 construct: purchased Thermo Fisher Scientific SelectScreen (plus Nanosyn / Reaction Biology for CDK/cyclin lines)
Description: as §1

[3] = biological target: T15, PIK3CA/PIK3R3 (p110 alpha/p55 gamma) (Homo sapiens, UniProt P42336)
T15 construct: purchased Thermo Fisher Scientific SelectScreen (plus Nanosyn / Reaction Biology for CDK/cyclin lines)
Description: as §1

PIK3C2B (PI3K-C2 beta) = biological target: T16, PIK3C2B (PI3K-C2 beta) (Homo sapiens, UniProt O00750)
T16 construct: purchased Thermo Fisher Scientific SelectScreen (plus Nanosyn / Reaction Biology for CDK/cyclin lines)
Description: as §1

LRRK2 G2019S FL = biological target: T17, LRRK2 G2019S FL (Homo sapiens, UniProt Q5S007, G2019S)
T17 construct: purchased Thermo Fisher Scientific SelectScreen (plus Nanosyn / Reaction Biology for CDK/cyclin lines)
T17 sequence (Q5S007 whole entry G2019S): as above
Description: as §1

PIP4K2A = biological target: T18, PIP4K2A (Homo sapiens, UniProt P48426)
T18 construct: purchased Thermo Fisher Scientific SelectScreen (plus Nanosyn / Reaction Biology for CDK/cyclin lines)
Description: as §1

LRRK2 = biological target: T19, LRRK2 (Homo sapiens, UniProt Q5S007)
T19 construct: purchased Thermo Fisher Scientific SelectScreen (plus Nanosyn / Reaction Biology for CDK/cyclin lines)
T19 sequence (Q5S007 whole entry): as the sequence (Q5S007 whole entry G2019S) above, with S2019G counted along it
Description: as §1

LRRK2 I2020T = biological target: T20, LRRK2 I2020T (Homo sapiens, UniProt Q5S007, I2020T)
T20 construct: purchased Thermo Fisher Scientific SelectScreen (plus Nanosyn / Reaction Biology for CDK/cyclin lines)
Description: as §1

CDK6/cyclin D1 = biological target: T21, CDK6/cyclin D1 (Homo sapiens, UniProt Q00534)
T21 construct: purchased Thermo Fisher Scientific SelectScreen (plus Nanosyn / Reaction Biology for CDK/cyclin lines)
Description: as §1

PIP5K1C = biological target: T22, PIP5K1C (Homo sapiens, UniProt O60331)
T22 construct: purchased Thermo Fisher Scientific SelectScreen (plus Nanosyn / Reaction Biology for CDK/cyclin lines)
T22 sequence (O60331 whole entry): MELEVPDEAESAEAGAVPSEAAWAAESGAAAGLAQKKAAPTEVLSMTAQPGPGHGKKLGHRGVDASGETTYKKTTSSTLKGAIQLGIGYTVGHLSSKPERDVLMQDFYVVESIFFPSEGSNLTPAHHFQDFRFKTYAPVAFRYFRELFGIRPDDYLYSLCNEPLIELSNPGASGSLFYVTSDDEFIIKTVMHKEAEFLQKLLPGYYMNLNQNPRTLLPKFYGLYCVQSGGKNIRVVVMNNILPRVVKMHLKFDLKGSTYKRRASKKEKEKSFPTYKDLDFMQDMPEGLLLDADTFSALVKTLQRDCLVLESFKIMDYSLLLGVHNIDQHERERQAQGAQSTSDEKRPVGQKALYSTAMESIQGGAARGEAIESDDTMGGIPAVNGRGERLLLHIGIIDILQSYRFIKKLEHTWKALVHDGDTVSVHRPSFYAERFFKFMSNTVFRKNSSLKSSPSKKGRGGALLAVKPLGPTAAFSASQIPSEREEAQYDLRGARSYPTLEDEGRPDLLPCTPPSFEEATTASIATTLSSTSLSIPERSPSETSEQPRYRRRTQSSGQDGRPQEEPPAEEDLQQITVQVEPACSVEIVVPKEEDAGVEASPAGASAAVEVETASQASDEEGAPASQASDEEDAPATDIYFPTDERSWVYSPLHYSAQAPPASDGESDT
Description: as §1

NUAK1 (ARK5) = biological target: T23, NUAK1 (ARK5) (Homo sapiens, UniProt O60285)
T23 construct: purchased Thermo Fisher Scientific SelectScreen (plus Nanosyn / Reaction Biology for CDK/cyclin lines)
Description: as §1

PIP5K1B = biological target: T24, PIP5K1B (Homo sapiens, UniProt O14986)
T24 construct: purchased Thermo Fisher Scientific SelectScreen (plus Nanosyn / Reaction Biology for CDK/cyclin lines)
Description: as §1

PI4KA (PI4K alpha) = biological target: T25, PI4KA (PI4K alpha) (Homo sapiens, UniProt P42356)
T25 construct: purchased Thermo Fisher Scientific SelectScreen (plus Nanosyn / Reaction Biology for CDK/cyclin lines)
Description: as §1

LRRK2 R1441C = biological target: T26, LRRK2 R1441C (Homo sapiens, UniProt Q5S007, R1441C)
T26 construct: purchased Thermo Fisher Scientific SelectScreen (plus Nanosyn / Reaction Biology for CDK/cyclin lines)
T26 sequence (Q5S007 whole entry R1441C): as the sequence (Q5S007 whole entry G2019S) above, with R1441C, S2019G counted along it
Description: as §1

LRRK2 FL = biological target: T27, LRRK2 FL (Homo sapiens, UniProt Q5S007)
T27 construct: purchased Thermo Fisher Scientific SelectScreen (plus Nanosyn / Reaction Biology for CDK/cyclin lines)
T27 sequence (Q5S007 whole entry): as the sequence (Q5S007 whole entry G2019S) above, with S2019G counted along it
Description: as §1

PIK3CG (p110 gamma) = biological target: T28, PIK3CG (p110 gamma) (Homo sapiens, UniProt P48736)
T28 construct: purchased Thermo Fisher Scientific SelectScreen (plus Nanosyn / Reaction Biology for CDK/cyclin lines)
Description: as §1

PI4KB (PI4K beta) = biological target: T29, PI4KB (PI4K beta) (Homo sapiens, UniProt Q9UBF8)
T29 construct: purchased Thermo Fisher Scientific SelectScreen (plus Nanosyn / Reaction Biology for CDK/cyclin lines)
Description: as §1

SPHK2 = biological target: T30, SPHK2 (Homo sapiens, UniProt Q9NRA0)
T30 construct: purchased Thermo Fisher Scientific SelectScreen (plus Nanosyn / Reaction Biology for CDK/cyclin lines)
Description: as §1

CDK4/cyclin D1 = biological target: T31, CDK4/cyclin D1 (Homo sapiens, UniProt P11802)
T31 construct: purchased ThermoFisher PV4400
Description: as §1

[4] = biological target: T32, PIK3CA/PIK3R1 (p110 alpha/p85 alpha) (Homo sapiens, UniProt P42336)
T32 construct: purchased Thermo Fisher Scientific SelectScreen (plus Nanosyn / Reaction Biology for CDK/cyclin lines)
Description: as §1

[5] = biological target: T33, PIK3CD/PIK3R1 (p110 delta/p85 alpha) (Homo sapiens, UniProt O00329)
T33 construct: purchased Thermo Fisher Scientific SelectScreen (plus Nanosyn / Reaction Biology for CDK/cyclin lines)
T33 sequence (O00329 whole entry): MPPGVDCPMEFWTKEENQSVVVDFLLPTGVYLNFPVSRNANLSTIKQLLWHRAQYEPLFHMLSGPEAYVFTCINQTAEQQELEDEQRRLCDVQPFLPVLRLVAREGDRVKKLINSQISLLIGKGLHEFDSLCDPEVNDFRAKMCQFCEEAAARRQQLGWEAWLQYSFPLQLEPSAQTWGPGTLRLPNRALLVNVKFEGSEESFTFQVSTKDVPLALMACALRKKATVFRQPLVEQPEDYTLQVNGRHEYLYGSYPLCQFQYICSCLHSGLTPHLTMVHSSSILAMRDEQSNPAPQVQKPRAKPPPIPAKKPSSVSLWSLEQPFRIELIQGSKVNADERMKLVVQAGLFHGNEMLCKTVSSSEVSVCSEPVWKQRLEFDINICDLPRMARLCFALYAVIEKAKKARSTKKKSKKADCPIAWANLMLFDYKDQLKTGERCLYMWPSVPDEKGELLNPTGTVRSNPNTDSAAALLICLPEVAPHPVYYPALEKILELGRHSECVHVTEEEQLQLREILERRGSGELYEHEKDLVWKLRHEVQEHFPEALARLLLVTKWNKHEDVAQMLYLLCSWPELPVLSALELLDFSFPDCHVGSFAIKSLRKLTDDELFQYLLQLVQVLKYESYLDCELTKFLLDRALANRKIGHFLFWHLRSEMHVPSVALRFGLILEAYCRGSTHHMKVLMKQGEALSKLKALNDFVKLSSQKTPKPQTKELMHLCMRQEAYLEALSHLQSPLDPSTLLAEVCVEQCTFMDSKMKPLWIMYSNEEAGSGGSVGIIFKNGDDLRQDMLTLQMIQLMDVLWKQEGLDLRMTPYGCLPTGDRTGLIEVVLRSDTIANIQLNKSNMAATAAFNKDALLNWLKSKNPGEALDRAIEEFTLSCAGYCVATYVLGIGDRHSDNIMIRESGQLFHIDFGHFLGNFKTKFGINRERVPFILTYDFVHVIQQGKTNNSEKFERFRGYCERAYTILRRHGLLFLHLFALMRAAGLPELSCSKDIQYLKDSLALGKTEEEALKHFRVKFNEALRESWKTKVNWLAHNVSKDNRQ
T33 sequence (P27986 whole entry partner): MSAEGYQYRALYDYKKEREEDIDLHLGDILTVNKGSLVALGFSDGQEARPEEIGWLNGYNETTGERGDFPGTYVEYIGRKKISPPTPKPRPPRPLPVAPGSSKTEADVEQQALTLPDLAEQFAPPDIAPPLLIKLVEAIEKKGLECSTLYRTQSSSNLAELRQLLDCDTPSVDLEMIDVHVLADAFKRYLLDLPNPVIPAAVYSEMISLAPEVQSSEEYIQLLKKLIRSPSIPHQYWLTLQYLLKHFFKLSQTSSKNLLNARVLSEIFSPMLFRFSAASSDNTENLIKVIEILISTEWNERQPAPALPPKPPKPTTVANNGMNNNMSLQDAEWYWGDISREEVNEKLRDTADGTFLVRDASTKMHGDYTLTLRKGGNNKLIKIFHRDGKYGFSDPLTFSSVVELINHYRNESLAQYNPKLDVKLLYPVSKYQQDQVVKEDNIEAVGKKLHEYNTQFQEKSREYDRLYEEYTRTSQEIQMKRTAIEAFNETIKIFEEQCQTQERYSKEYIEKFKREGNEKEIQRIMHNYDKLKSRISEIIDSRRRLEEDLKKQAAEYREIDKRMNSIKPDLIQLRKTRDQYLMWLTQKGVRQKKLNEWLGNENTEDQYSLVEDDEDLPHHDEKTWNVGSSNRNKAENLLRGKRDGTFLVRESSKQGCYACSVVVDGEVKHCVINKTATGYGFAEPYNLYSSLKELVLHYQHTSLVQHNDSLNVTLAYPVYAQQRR
Description: as §1

[6] = biological target: T34, PIK3CB/PIK3R1 (p110 beta/p85 alpha) (Homo sapiens, UniProt P42338)
T34 construct: purchased Thermo Fisher Scientific SelectScreen (plus Nanosyn / Reaction Biology for CDK/cyclin lines)
Description: as §1

PIK3C2A (PI3K-C2 alpha) = biological target: T35, PIK3C2A (PI3K-C2 alpha) (Homo sapiens, UniProt O00443)
T35 construct: purchased Thermo Fisher Scientific SelectScreen (plus Nanosyn / Reaction Biology for CDK/cyclin lines)
Description: as §1

## NS(=O)(=O)c1ccc(Nc2ncc3cc4n(c3n2)C2(CCCCC2)C(=O)NN4)cc1 [INX-315]
PI4K2A (PI4K2 alpha)
  inhibition at 0.1 µM: 0%
PI4K2B (PI4K2 beta)
  inhibition at 0.1 µM: -2%
[1]
  inhibition at 0.1 µM: -14%
DAPK1
  inhibition at 0.1 µM: -8%
CAMK1 (CaMK1)
  inhibition at 0.1 µM: -17%
[2]
  inhibition at 0.1 µM: -1%
PIP5K1A
  inhibition at 0.1 µM: 6%
CDK4/cyclin D3
  inhibition at 0.1 µM: 22%
PIK3C3 (hVPS34)
  inhibition at 0.1 µM: 7%
GSG2 (Haspin)
  inhibition at 0.1 µM: 4%
LRRK2 G2019S
  inhibition at 0.1 µM: 34%
CHUK (IKK alpha)
  inhibition at 0.1 µM: -7%
CDK7/cyclin H/MNAT1
  inhibition at 0.1 µM: -3%
IRAK1
  inhibition at 0.1 µM: 6%
[3]
  inhibition at 0.1 µM: -2%
PIK3C2B (PI3K-C2 beta)
  inhibition at 0.1 µM: -14%
LRRK2 G2019S FL
  inhibition at 0.1 µM: 40%
PIP4K2A
  inhibition at 0.1 µM: 7%
LRRK2
  inhibition at 0.1 µM: 29%
LRRK2 I2020T
  inhibition at 0.1 µM: 28%
CDK6/cyclin D1
  inhibition at 0.1 µM: 15%
PIP5K1C
  inhibition at 0.1 µM: 4%
NUAK1 (ARK5)
  inhibition at 0.1 µM: 68%
PIP5K1B
  inhibition at 0.1 µM: 38%
PI4KA (PI4K alpha)
  inhibition at 0.1 µM: -11%
LRRK2 R1441C
  inhibition at 0.1 µM: 22%
LRRK2 FL
  inhibition at 0.1 µM: 37%
PIK3CG (p110 gamma)
  inhibition at 0.1 µM: -8%
PI4KB (PI4K beta)
  inhibition at 0.1 µM: 2%
SPHK2
  inhibition at 0.1 µM: -19%
CDK4/cyclin D1
  inhibition at 0.1 µM: 24%
[4]
  inhibition at 0.1 µM: 11%
[5]
  inhibition at 0.1 µM: -10%
[6]
  inhibition at 0.1 µM: -17%
PIK3C2A (PI3K-C2 alpha)
  inhibition at 0.1 µM: -1%
